Literature values in US20090181887A1, “USE OF A GLP-1 MOLECULE FOR TREATMENT OF BILIARY DYSKINESIA AND/OR BILIARY PAIN/DISCOMFORT” (Gastrotech Pharma A/S, priority 2005, published 2009).
Where no end group is shown, it is not given here.

Conditions: in man; Wettergren et al, 1993; Gutniak et al, 1996

glucagon-like peptide-1 (HAEGTFTSDVSSYLEGQAAKEFIAWLVKGR-NH2; ends and bridges not checked; UniProt P01275 98-127, looked up) [GLP-1, gastrointestinal peptide hormone; natural forms GLP-1 (7-36)amide and GLP-1 (7-37)]
slowing of gastric emptying: 50%
